Calls of active or inactive are those of the source.
Columns and labels:
[1] = biological target: T1, Cyclin-dependent kinase 5/CDK5 activator 1 (Homo sapiens, UniProt Q00535); test: CDK5/p35 kinase inhibitors, dose response, biochemical, cherry-picked samples, set 2 (AID 504545)
[2] = biological target: Dual specificity tyrosine-phosphorylation-regulated kinase 1A (Rattus norvegicus, UniProt Q63470); format: biochemical, Homo sapiens
[3] = biological target: Glycogen synthase kinase-3 beta (Homo sapiens, UniProt P49841); test: GSK3beta kinase inhibitors, dose response, biochemical, microfluidics, dry powder samples, set 2 (AID 623989); format: functional
Sequence of Glycogen synthase kinase-3 beta (P49841 whole entry): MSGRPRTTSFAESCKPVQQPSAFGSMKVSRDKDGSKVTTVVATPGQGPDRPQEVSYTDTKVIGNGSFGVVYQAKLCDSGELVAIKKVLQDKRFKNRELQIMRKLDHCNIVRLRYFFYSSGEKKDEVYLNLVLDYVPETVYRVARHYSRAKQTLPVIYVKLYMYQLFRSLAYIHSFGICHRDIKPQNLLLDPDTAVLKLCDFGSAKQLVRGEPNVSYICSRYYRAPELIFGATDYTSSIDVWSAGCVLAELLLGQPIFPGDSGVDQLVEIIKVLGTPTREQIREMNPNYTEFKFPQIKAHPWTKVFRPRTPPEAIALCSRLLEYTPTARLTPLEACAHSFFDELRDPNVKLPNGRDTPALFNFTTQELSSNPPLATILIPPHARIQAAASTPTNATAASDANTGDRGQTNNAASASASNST

[4] = biological target: Glycogen synthase kinase-3 alpha (Homo sapiens, UniProt P49840); test: human GSK3 alpha kinase inhibition, dose response, selectivity assay for GSK3beta inhibitor project, biochemical, microfluidics, dry powder samples, set 2 (AID 623978); format: functional
Sequence of Glycogen synthase kinase-3 alpha (P49840 whole entry): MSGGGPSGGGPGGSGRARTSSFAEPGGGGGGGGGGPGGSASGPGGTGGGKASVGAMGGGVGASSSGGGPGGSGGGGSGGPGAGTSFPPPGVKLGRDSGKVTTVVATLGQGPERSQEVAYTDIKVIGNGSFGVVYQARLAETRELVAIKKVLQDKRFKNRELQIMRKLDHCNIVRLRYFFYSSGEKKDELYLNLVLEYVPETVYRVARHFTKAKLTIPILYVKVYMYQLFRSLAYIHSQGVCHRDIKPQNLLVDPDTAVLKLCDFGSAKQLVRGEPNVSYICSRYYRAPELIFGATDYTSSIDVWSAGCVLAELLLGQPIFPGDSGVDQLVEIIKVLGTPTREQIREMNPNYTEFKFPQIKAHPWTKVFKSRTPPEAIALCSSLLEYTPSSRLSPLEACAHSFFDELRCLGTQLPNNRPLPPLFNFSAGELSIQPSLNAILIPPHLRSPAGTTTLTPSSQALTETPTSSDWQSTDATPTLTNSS

[5] = biological target: T1, Cyclin-dependent kinase 5/CDK5 activator 1; test: CDK5-p25 kinase inhibition, dose response, selectivity assay for GSK3beta inhibitor project, biochemical, microfluidic mobility shift, dry powder, set 2 (AID 623979); format: functional
[6] = HepG2 cell cytotoxicity, dose response, cytotoxicity control, ATP luminescence, cherry-pick, activator set 2 (AID 1053143); format: functional, cell-based
[7] = THP-1 cell cytotoxicity, dose response, cytotoxicity control for Vif-APOBEC3G degradation inhibitor project, THP-1 cells (AID 1117359); format: functional; details: Human immunodeficiency virus 1, THP-1

T1 sequence (Q00535 whole entry): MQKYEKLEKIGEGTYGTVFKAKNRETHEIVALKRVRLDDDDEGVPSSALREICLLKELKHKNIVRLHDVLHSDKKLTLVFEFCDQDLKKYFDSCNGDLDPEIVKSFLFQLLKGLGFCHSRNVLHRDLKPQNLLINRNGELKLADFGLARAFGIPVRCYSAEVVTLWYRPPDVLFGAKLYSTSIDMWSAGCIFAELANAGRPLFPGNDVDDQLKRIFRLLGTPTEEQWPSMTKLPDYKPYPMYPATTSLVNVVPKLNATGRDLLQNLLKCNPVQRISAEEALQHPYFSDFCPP
T1 sequence (Q15078 whole entry, further chain): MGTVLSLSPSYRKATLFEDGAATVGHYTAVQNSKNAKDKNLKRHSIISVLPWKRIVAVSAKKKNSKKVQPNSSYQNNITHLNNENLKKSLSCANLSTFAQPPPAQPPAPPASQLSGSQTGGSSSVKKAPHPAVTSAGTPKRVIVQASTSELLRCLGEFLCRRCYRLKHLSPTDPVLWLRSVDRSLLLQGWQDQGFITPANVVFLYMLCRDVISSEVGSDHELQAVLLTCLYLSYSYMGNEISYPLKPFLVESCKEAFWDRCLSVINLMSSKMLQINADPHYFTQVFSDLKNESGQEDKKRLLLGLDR

Nc1nc(Nc2ccccc2)sc1C(=O)c1ccccc1
active: AC50 [1] 2270 nM | AC50 [2] 811 nM | AC50 [3] 36 nM | AC50 [4] 168 nM | AC50 [5] 190 nM | AC50 [6] 18900 nM | CC50 [7] 14000 nM

Reference: ChEMBL document CHEMBL1201862, “PubChem BioAssay data set” (2004)
